# Patent US7977322B2 (Vertex Pharmaceuticals Incorporated, priority 2004, dated 2011)
# Target: T1, ΔF508-CFTR (Homo sapiens, UniProt P13569, DEL508-508)
# T1 construct: expressed in transfected cells
# Assay: Membrane potential optical (FRET/VIPR) assay, identification of correction compounds
# Assay type: cell-based
# Conditions: Table 3, assay not given; for Emax: read-out: % Activity / % Efficacy (relative efficacy)
# Outline: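 NIH3T3 mouse fibroblasts stably expressing ΔF508-CFTR were exposed to compound for 16 h at 37° C in serum-free medium, then loaded with DiSBAC2(3)/CC2-DMPE. After addition of 10 μM forskolin plus 20 μM genistein in Cl⁻-free gluconate bath (pH 7.4), depolarization from Cl⁻ efflux was read by FRET (VIPR II).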
# T1 sequence (P13569 with tags, fused parts or gaps DEL508-508): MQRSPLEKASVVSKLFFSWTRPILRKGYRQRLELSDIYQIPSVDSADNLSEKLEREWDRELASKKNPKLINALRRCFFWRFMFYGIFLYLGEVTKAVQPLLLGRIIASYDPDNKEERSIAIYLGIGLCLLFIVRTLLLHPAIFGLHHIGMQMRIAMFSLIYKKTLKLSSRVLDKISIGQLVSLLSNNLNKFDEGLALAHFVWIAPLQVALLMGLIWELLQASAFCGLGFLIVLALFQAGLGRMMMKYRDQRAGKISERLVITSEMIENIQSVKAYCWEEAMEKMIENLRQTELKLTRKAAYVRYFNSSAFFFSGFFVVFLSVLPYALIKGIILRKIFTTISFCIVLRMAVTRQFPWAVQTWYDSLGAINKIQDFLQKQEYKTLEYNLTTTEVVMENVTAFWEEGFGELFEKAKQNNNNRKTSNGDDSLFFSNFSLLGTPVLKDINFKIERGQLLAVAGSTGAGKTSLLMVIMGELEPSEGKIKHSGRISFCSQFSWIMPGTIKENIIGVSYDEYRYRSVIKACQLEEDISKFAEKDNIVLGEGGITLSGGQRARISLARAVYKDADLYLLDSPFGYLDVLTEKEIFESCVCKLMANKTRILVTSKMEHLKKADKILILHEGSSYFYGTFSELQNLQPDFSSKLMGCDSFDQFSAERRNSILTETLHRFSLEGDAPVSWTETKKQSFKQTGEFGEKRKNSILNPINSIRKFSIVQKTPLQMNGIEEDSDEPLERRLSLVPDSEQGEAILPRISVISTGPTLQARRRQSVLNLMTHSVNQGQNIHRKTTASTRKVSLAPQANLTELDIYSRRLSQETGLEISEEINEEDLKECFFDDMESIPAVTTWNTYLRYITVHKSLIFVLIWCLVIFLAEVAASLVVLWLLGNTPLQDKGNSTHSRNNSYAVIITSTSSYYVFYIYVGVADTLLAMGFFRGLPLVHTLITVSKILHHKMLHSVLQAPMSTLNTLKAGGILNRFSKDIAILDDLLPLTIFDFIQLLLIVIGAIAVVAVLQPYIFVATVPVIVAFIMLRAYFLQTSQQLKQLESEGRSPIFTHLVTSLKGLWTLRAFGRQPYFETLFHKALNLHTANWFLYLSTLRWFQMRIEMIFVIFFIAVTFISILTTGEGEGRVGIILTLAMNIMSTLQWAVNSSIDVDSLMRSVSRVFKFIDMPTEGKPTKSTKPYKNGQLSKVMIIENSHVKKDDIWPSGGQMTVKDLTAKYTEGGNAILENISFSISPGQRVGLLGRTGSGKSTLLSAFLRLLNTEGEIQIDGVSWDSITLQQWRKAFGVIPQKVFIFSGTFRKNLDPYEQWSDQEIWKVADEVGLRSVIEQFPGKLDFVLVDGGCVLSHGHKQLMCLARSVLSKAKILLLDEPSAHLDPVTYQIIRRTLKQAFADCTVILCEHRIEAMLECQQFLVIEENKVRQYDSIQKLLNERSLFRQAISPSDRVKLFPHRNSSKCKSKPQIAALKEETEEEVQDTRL
% Activity / % Efficacy (relative efficacy),EC50 [µM],Emax [%],Compound
+ (“+” means<25%),< 10,–,O=C(Nc1ncc(C(OCCCCO)c2ccccc2Cl)s1)C1(c2ccc3c(c2)OCO3)CC1 (centres unmarked) [Example 275]
–,< 10,25 to 100,COc1ccc(C2(C(=O)Nc3ncc(Sc4ccccc4Cl)s3)CC2)cc1 [Example 36]
–,< 10,> 100,O=C(Nc1ncc([C@@H](O)c2ccccc2Cl)s1)C1(c2ccc3c(c2)OCO3)CC1 [Example 322]
–,< 10,> 100,O=C(Nc1ncc(C(c2ccc(Cl)cc2Cl)N2CC[C@@H](O)C2)s1)C1(c2ccc3c(c2)OCO3)CC1 (some centres unmarked) [Example 470]
–,< 10,> 100,CC(C)[C@H](CO)NC(c1cnc(NC(=O)C2(c3ccc4c(c3)OCO4)CC2)s1)c1ccccc1C(F)(F)F (some centres unmarked) [Example 481]
–,< 10,> 100,CC(C)C[C@H](CO)NC(c1cnc(NC(=O)C2(c3ccc4c(c3)OCO4)CC2)s1)c1ccccc1Cl (some centres unmarked) [Example 438]
++ (“++” means between 25% to 100%),< 10,–,Nc1ccc(Sc2cnc(NC(=O)C3(c4ccc5c(c4)OCO5)CC3)s2)cc1 [Example 100]
–,< 10,> 100,CCC[C@@H](CO)NC(c1cnc(NC(=O)C2(c3ccc4c(c3)OCO4)CC2)s1)c1ccccc1Cl (some centres unmarked) [Example 485]
+++ (“+++” means>100%),< 10,–,O=C(Nc1nc(-c2ccc(Cl)cc2Cl)cs1)C1(c2ccc3c(c2)OCO3)CC1 [Example 126]
–,10 to 25,25 to 100,CCC(c1cnc(NC(=O)C2(c3ccc4c(c3)OCO4)CC2)s1)N1CCC(O)CC1 (centres unmarked) [Example 396]
+++ (“+++” means>100%),< 10,–,O=C(Nc1nc(-c2ccccc2Cl)cs1)C1(c2ccc3c(c2)OCO3)CC1 [Example 81]
+++ (“+++” means>100%),< 10,–,Cc1ccc(-c2csc(NC(=O)C3(c4ccc5c(c4)OCO5)CC3)n2)cc1 [Example 82]
–,10 to 25,> 100,CCC(c1cnc(NC(=O)C2(c3ccc4c(c3)OCO4)CC2)s1)N1CCC[C@H]1COC (some centres unmarked) [Example 404]
+++ (“+++” means>100%),< 10,–,COc1ccc(C2(C(=O)Nc3ncc(C)s3)CC2)cc1 [Example 64]
+++ (“+++” means>100%),< 10,–,COc1cccc(-c2csc(NC(=O)C3(c4ccc5c(c4)OCO5)CC3)n2)c1 [Example 114]
–,< 10,> 100,O=C(Nc1ncc(C(NC(CO)CO)c2ccccc2Cl)s1)C1(c2ccc3c(c2)OCO3)CC1 (centres unmarked) [Example 433]
+++ (“+++” means>100%),< 10,–,COc1ccc(C2(C(=O)Nc3ncc(Cc4ccccc4C#N)s3)CC2)cc1OC [Example 61]
+++ (“+++” means>100%),< 10,–,COCCN1CCN(C(c2cnc(NC(=O)C3(c4ccc5c(c4)OCO5)CC3)s2)c2ccccc2Cl)CC1 (centres unmarked) [Example 238]
–,< 10,> 100,CC(CO)(CO)NC(c1cnc(NC(=O)C2(c3ccc4c(c3)OCO4)CC2)s1)c1ccccc1Cl (centres unmarked) [Example 431]

% Activity / % Efficacy (relative efficacy),EC50 [µM],Emax [%],Compound
+++ (“+++” means>100%),< 10,–,O=C(Nc1nc2c(s1)-c1ccccc1CC2)C1(c2ccc3c(c2)OCO3)CC1 [Example 110]
–,< 10,> 100,O=C(Nc1ncc(C(c2ccc(Cl)cc2Cl)N2CCCC2)s1)C1(c2ccc3c(c2)OCO3)CC1 (centres unmarked) [Example 467]
+++ (“+++” means>100%),< 10,–,CCCc1nc(NC(=O)C2(c3ccc(OC)cc3)CC2)sc1C(=O)OCC [Example 184]
–,< 10,> 100,COc1cccc(C(c2cnc(NC(=O)C3(c4ccc5c(c4)OCO5)CC3)s2)N2CCOCC2)c1 (centres unmarked) [Example 374]
–,< 10,> 100,O=C(Nc1ncc(C(c2ccccc2F)N2CCCC2)s1)C1(c2ccc3c(c2)OCO3)CC1 (centres unmarked) [Example 465]
–,< 10,> 100,C[C@@H](O)CNC(c1cnc(NC(=O)C2(c3ccc4c(c3)OCO4)CC2)s1)c1ccccc1Cl (some centres unmarked) [Example 487]
–,< 10,> 100,O=C(Nc1ncc(C(NC2CCC2)c2ccccc2Cl)s1)C1(c2ccc3c(c2)OCO3)CC1 (centres unmarked) [Example 417]
++ (“++” means between 25% to 100%),25 to 60,–,COc1cccc(C2(C(=O)Nc3ncc(Cc4ccccc4OC)s3)CC2)c1 [Example 67]
+++ (“+++” means>100%),< 10,–,COc1ccc(C2(C(=O)Nc3ncc(Cc4ccccc4OC)s3)CCOCC2)cc1 [Example 57]
+ (“+” means<25%),10 to 25,–,O=C1CCCc2nc(NC(=O)C3(c4ccc5c(c4)OCO5)CC3)sc21 [Example 190]
–,< 10,> 100,O=C(Nc1ncc(C(NCCC2=CCCCC2)c2ccccc2Cl)s1)C1(c2ccc3c(c2)OCO3)CC1 (centres unmarked) [Example 427]
+++ (“+++” means>100%),< 10,–,COc1ccc(Cc2cnc(NC(=O)C3(c4ccc5c(c4)OCO5)CC3)s2)cc1 [Example 183]
–,10 to 25,> 100,CN(C)C(c1cnc(NC(=O)C2(c3ccc4c(c3)OCO4)CC2)s1)C(C)(C)C (centres unmarked) [Example 395]
–,< 10,> 100,O=C(Nc1ncc(C(c2ccccc2C(F)(F)F)N2CCCC2)s1)C1(c2ccc3c(c2)OCO3)CC1 (centres unmarked) [Example 468]
–,10 to 25,> 100,CCC(c1cnc(NC(=O)C2(c3ccc4c(c3)OCO4)CC2)s1)N1CCC[C@@H]1COC (some centres unmarked) [Example 401]
+++ (“+++” means>100%),< 10,–,COc1ccccc1Cc1cnc(NC(=O)C2(c3ccc(F)c(F)c3)CC2)s1 [Example 198]
–,10 to 25,25 to 100,COc1nonc1NC(=O)C1(c2ccc3c(c2)OCO3)CC1 [Example 292]
–,< 10,> 100,O=C(Nc1ncc(C(c2ccccc2Cl)N2CC[C@@H](O)C2)s1)C1(c2ccc3c(c2)OC(F)(F)O3)CC1 (some centres unmarked) [Example 492]
–,10 to 25,> 100,CC(C)(C)C(c1cnc(NC(=O)C2(c3ccc4c(c3)OCO4)CC2)s1)N1CCC[C@H]1C(N)=O (some centres unmarked) [Example 384]

Compound,% Activity / % Efficacy (relative efficacy),EC50 [µM],Emax [%]
O=C(Nc1ncc(C(SCCCCO)c2ccccc2Cl)s1)C1(c2ccc3c(c2)OCO3)CC1 (centres unmarked) [Example 131],–,< 10,–
